Read-outs that look alike come from different tables or passages of the source.
Columns and labels:
OVCAR-5 = test: NCI-60 in vitro tumor cell screen, OVCAR-5; type: cell-based; conditions: Homo sapiens; OVCAR-5, Ovarian Cancer
Protocol: (§1) All the synthesized thiazoles 1a–l, 2a–j, 3a–f and 4a–f were evaluated by the National Cancer Institute (Bethesda MD) for cytotoxicity against the NCI-60 cell line panel using standard protocols. Initially, all derivatives were tested at a single dose (10^−5 M) on the full panel of approximately 60 human tumor cell lines derived from 9 human cancer cell types, that have been grouped in disease sub-panels including leukemia, non-small-cell lung, colon, central nervous system (CNS), melanoma, ovarian, renal, prostate and breast cancers (data not shown). Compounds 1k and 4c were further selected for full evaluation at five concentration levels (10^−4–10^−8 M).
(§2) The antitumor activity of compounds 1k and 4c was given by three parameters for each cell line: GI50 (GI50 is the molar concentration of the compound that inhibits 50% net cell growth), TGI (TGI is the molar concentration of the compound leading to total inhibition of net cell growth), and LC50 (LC50 is the molar concentration of the compound that induces 50% net cell death). The average values of mean graph midpoint (MG_MID) were calculated for each of these parameters.

HS 578T = test: NCI-60 in vitro tumor cell screen, HS 578T; type: cell-based; conditions: Homo sapiens, Breast Cancer
Protocol: as §1, §2

OVCAR-4 = test: NCI-60 in vitro tumor cell screen, OVCAR-4; type: cell-based; conditions: Homo sapiens; OVCAR-4, Ovarian Cancer
Protocol: as §1, §2

T-47D = test: NCI-60 in vitro tumor cell screen, T-47D; type: cell-based; conditions: Homo sapiens, T47D, Breast Cancer
Protocol: as §1, §2

SK-OV-3 = test: NCI-60 in vitro tumor cell screen, SK-OV-3; type: cell-based; conditions: Homo sapiens; SK-OV-3, Ovarian Cancer
Protocol: as §1, §2

RPMI-8226 = test: NCI-60 in vitro tumor cell screen, RPMI-8226; type: cell-based; conditions: Homo sapiens; RPMI-8226, Leukemia
Protocol: as §1, §2

NCI-H460 = test: NCI-60 in vitro tumor cell screen, NCI-H460; type: cell-based; conditions: Homo sapiens; NCI-H460, Non-Small Cell Lung Cancer
Protocol: as §1, §2

SW-620 = test: NCI-60 in vitro tumor cell screen, SW-620; type: cell-based; conditions: Homo sapiens; SW-620, Colon Cancer
Protocol: as §1, §2

ACHN = test: NCI-60 in vitro tumor cell screen, ACHN; type: cell-based; conditions: Homo sapiens, Renal Cancer
Protocol: as §1, §2

HCT-116 cells [1] = test: Cell cycle analysis by flow cytometry (propidium iodide); type: cell-based, human; conditions: 24 h, concentrations above and below GI50
Protocol: Cell cycle stage was analyzed by flow cytometry. HCT-116 cells (5.0 × 10^4 cells/cm^2) were seeded in triplicate in 24-wells culture plates. After an overnight incubation, the cells were washed with fresh medium and incubated with compounds 1k and 4c in RPMI for 24 h. Then cells were harvested by trypsinization. Aliquots of 1 × 10^6 cells were washed with PBS and incubated in the dark in a PBS solution containing 20 μg/mL propidium iodide (PI) and 200 μg/mL RNase, for 30 min, at room temperature. Then samples of at least 1.0 × 10^4 cells were subjected to fluorescence-activated cell sorting (FACS) analysis by Epics XL™ flow cytometer using Expo32 software (Beckman Coulter, Fullerton, CA, USA).

HCT-116 cells [2] = test: Phosphatidylserine exposure, Annexin V-FITC/PI flow cytometry; type: cell-based, human; conditions: 24 h
Protocol: The apoptosis-induced PS externalization to the cell surface was measured by flow cytometry by double staining with Annexin V-Fluorescein isothiocyanate (Annexin V-FITC)/propidium iodide (PI). Annexin V binding to phosphatidylserine is used to identify the earliest stage of apoptosis. […] After 24 h treatment, HCT-116 cells were harvested by trypsinization and adjusted at 1.0 × 10^6 cells/mL with combining buffer according to the manufacturer instructions (eBioscience, San Diego, CA, USA). One hundred μL of cell suspensions were added to a new tube, and incubated with Annexin V-FITC and PI solution at room temperature in the dark for 15 min. Then samples of at least 1.0 × 10^4 cells were subjected to FACS analysis using appropriate 2-bidimensional gating method.

MDA-MB-231/ATCC = test: NCI-60 in vitro tumor cell screen, MDA-MB-231/ATCC; type: cell-based; conditions: Homo sapiens, Breast Cancer
Protocol: as §1, §2

DU-145 = test: NCI-60 in vitro tumor cell screen, DU-145; type: cell-based; conditions: Homo sapiens; DU-145, Prostate Cancer
Protocol: as §1, §2

NCI-H23 = test: NCI-60 in vitro tumor cell screen, NCI-H23; type: cell-based; conditions: Homo sapiens; NCI-H23, Non-Small Cell Lung Cancer
Protocol: as §1, §2

NCI-H226 = test: NCI-60 in vitro tumor cell screen, NCI-H226; type: cell-based; conditions: Homo sapiens; NCI-H226, Non-Small Cell Lung Cancer
Protocol: as §1, §2

MDA-MB-468 = test: NCI-60 in vitro tumor cell screen, MDA-MB-468; type: cell-based; conditions: Homo sapiens; MDA-MB-468, Breast Cancer
Protocol: as §1, §2

NCI-60 cell line panel = test: NCI-60 cell line panel, summary over the full panel or subpanel; type: cell-based, human; conditions: for GI50: Homo sapiens
Protocol: as §1, §2

NCI-H322M = test: NCI-60 in vitro tumor cell screen, NCI-H322M; type: cell-based; conditions: Homo sapiens, Non-Small Cell Lung Cancer
Protocol: as §1, §2

IGROV1 = test: NCI-60 in vitro tumor cell screen, IGROV1; type: cell-based; conditions: Homo sapiens, IGROV-1; IGROV1, Ovarian Cancer
Protocol: as §1, §2

A498 = test: NCI-60 in vitro tumor cell screen, A498; type: cell-based; conditions: Homo sapiens; A498, Renal Cancer
Protocol: as §1, §2

CAKI-1 = test: NCI-60 in vitro tumor cell screen, CAKI-1; type: cell-based; conditions: Homo sapiens; CAKI-1, Renal Cancer
Protocol: as §1, §2

HL-60(TB) = test: NCI-60 in vitro tumor cell screen, HL-60(TB); type: cell-based; conditions: Homo sapiens, Leukemia
Protocol: as §1, §2

MCF7 = test: NCI-60 in vitro tumor cell screen, MCF7; type: cell-based; conditions: Homo sapiens; MCF7, Breast Cancer
Protocol: as §1, §2

SK-MEL-2 = test: NCI-60 in vitro tumor cell screen, SK-MEL-2; type: cell-based; conditions: Homo sapiens; SK-MEL-2, Melanoma
Protocol: as §1, §2

MOLT-4 = test: NCI-60 in vitro tumor cell screen, MOLT-4; type: cell-based; conditions: Homo sapiens; MOLT-4, Leukemia
Protocol: as §1, §2

HCC-2998 = test: NCI-60 in vitro tumor cell screen, HCC-2998; type: cell-based; conditions: Homo sapiens; HCC-2998, Colon Cancer
Protocol: as §1, §2

[3] = mean over the NCI full panel, read-out: GI50 mean value
[4] = range over the NCI full panel, read-out: GI50 values against most of the human cell lines (range)

Structure (SMILES): Clc1nccc2c(-c3csc(-c4c[nH]c5ccc(Br)cc45)n3)c[nH]c12 [Compound 4c, 3-[2-(5-Bromo-1H-indol-3-yl)-1,3-thiazol-4-yl]-7-chloro-1H-pyrrolo[2,3-c]pyridine]
- GI50 (OVCAR-5): 3140 nM
- GI50 (HS 578T): 3700 nM
- GI50 (OVCAR-4): 3250 nM
- GI50 (T-47D): 3120 nM
- GI50 (SK-OV-3): 2780 nM
- GI50 (RPMI-8226): 4030 nM
- GI50 (NCI-H460): 2160 nM
- GI50 (SW-620): 1920 nM
- GI50 (ACHN): 2020 nM
- alteration of cell cycle distribution (HCT-116 cells [1]): dose-dependent accumulation of cells in G1 phase
- apoptosis (Annexin V-FITC/PI staining) (HCT-116 cells [2]): evident only at high concentrations (GI70)
- GI50 (MDA-MB-231/ATCC): 1680 nM
- GI50 (DU-145): 1760 nM
- GI50 (NCI-H23): 2420 nM
- GI50 (NCI-H226): 2400 nM
- GI50 (MDA-MB-468): 1180 nM
- GI50 (NCI-60 cell line panel; all renal cancer subpanel cell lines, read-out: GI50 range, renal cancer subpanel): 930 to 4160 nM
- GI50 (NCI-60 cell line panel; [3]): 2590 nM
- GI50 (NCI-60 cell line panel; [4]): 930 to 4700 nM
- percentage of sensitive cell lines out of the total number of cell lines investigated (NCI-60 cell line panel; NCI full panel): 100%
- percentage of cell lines with positive LC50 values (NCI-60 cell line panel; NCI full panel, data not shown): 81%
- percentage of cell lines with positive TGI values (NCI-60 cell line panel; NCI full panel, data not shown): 98%
- GI50 (NCI-H322M): 3540 nM
- GI50 (IGROV1): 2510 nM
- GI50 (A498): 1560 nM
- GI50 (CAKI-1): 1960 nM
- GI50 (HL-60(TB)): 2640 nM
- GI50 (MCF7): 2200 nM
- GI50 (SK-MEL-2): 4090 nM
- GI50 (MOLT-4): 3020 nM
- GI50 (HCC-2998): 2220 nM

Structure (SMILES): Cn1cc(-c2csc(-c3c[nH]c4ncccc34)n2)c2cc(Br)cnc21 [Compound 1k, 5-Bromo-1-methyl-3-[2-(1H-pyrrolo[2,3-b]pyridin-3-yl)-1,3-thiazol-4-yl]-1H-pyrrolo[2,3-b]pyridine]
- GI50 (OVCAR-5): > 100000 nM
- GI50 (HS 578T): 2430 nM
- GI50 (OVCAR-4): 2030 nM
- GI50 (T-47D): 1800 nM
- GI50 (SK-OV-3): 3250 nM
- GI50 (RPMI-8226): > 100000 nM
- GI50 (NCI-H460): 2980 nM
- GI50 (SW-620): 4460 nM
- GI50 (ACHN): 2350 nM
- alteration of cell cycle distribution (HCT-116 cells [1]): dose-dependent accumulation of cells in G2/M phase
- apoptosis (Annexin V-FITC/PI staining) (HCT-116 cells [2]): percentage of cells in late apoptosis increased
- GI50 (MDA-MB-231/ATCC): 3020 nM
- GI50 (DU-145): 3510 nM
- GI50 (NCI-H23): 2800 nM
- GI50 (NCI-H226): 1970 nM
- GI50 (MDA-MB-468): 810 nM
- GI50 (NCI-60 cell line panel; [3]): 5260 nM
- GI50 (NCI-60 cell line panel; [4]): 810 to 27700 nM
- percentage of sensitive cell lines out of the total number of cell lines investigated (NCI-60 cell line panel; NCI full panel): 89%
- GI50 (NCI-H322M): > 100000 nM
- GI50 (IGROV1): 2210 nM
- GI50 (A498): 10900 nM
- GI50 (CAKI-1): 1560 nM
- GI50 (HL-60(TB)): > 100000 nM
- GI50 (MCF7): 6770 nM
- GI50 (SK-MEL-2): 19800 nM
- GI50 (MOLT-4): > 100000 nM
- GI50 (HCC-2998): > 100000 nM
